Results published in US20220193242A1, “IMMUNOPHILIN-DEPENDENT INHIBITORS AND USES THEREOF” (The Regents of the University of California, priority 2019, published 2022).
pKd: −log10 of the molar value. Values belong to the compound of their own block, whether it stands above or below them.

Assays:
Src and HA-FKBP12 = target: T1, Src and HA-FKBP12 (Homo sapiens, UniProt P12931+P62942); test: Immunoprecipitation of HA-FKBP12 from Jurkat cell lysate; format: binding; conditions: Jurkat cell lysate 1 mg/mL, 1 μM compound
T1 construct: endogenous in cells; host or cells: Jurkat cell lysate (Src); HA-FKBP12 added as purified protein
T1 sequence (P12931 2-536 limits assumed): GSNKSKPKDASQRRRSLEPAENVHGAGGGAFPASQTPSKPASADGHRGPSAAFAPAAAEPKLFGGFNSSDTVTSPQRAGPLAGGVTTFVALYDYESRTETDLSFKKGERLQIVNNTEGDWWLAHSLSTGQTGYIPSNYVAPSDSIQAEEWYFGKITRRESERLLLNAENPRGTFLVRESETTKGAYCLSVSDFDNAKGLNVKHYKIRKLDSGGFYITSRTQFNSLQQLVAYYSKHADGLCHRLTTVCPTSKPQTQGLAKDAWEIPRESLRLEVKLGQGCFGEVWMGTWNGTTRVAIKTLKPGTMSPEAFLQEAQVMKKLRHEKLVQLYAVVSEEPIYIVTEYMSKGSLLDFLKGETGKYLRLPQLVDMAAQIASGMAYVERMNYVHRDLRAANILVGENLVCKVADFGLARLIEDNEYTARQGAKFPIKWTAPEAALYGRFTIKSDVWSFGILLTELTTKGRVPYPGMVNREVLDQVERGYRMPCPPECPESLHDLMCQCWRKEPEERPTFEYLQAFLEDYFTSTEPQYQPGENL
T1 sequence (P62942 whole entry): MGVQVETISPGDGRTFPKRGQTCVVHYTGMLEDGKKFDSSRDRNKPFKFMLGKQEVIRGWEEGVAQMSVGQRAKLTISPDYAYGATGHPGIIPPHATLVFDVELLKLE
Experimental: FIGS. 2A-2C. […] Fractions of 0.5 mL were collected and analyzed by SDS-PAGE.
FIG. 23. […] Pulldown was performed with Jurkat cell lysate (1 mg/mL, 200 μL), supplemented with 2 μg HA-FKBP12. Pulldown/wash buffer: 50 mM Tris 7.4, 120 mM NaCl, 1% NP-40, 1 mM EDTA, phosphatase/protease inhibitors.

[1] = test system: TCR signaling (phospho-tyrosine) in Jurkat cells; test: CD3 crosslinking (OKT3) triggered T cell activation in Jurkat cells, Western blot; format: cell-based
Experimental: (§1) FIGS. 3A-3D. […] The phosphotyrosine levels were monitored by Western blot at various time points over 24 h.
FIG. 25. […] Jurkat cells (1×10^6/mL) were treated with the indicated drugs for 1 h, then stimulated with anti-CD3 mAb OKT3 (5 μg/mL) for 5 min. before lysis and analysis.

FKBP12 [2] = target: T2, FKBP12 (Homo sapiens, UniProt P62942); test: FKBP12 dependence of activity (FIG. 19)
T2 sequence (P62942 whole entry): as above

K562 = conditions: K562, 72 h treatment
Experimental: FIG. 27. […] K562 (seeding density 5×10^4/mL) cells, 72 h treatment.

[3] = test system: phosphotyrosine levels in Jurkat cells; test: Drug washout, phosphotyrosine levels over 24 h in Jurkat cells; format: cell-based; conditions: 100 nM for 1 h
Experimental: as §1
FIG. 26. […] Jurkat cells (1×10^6/mL) were treated with 100 nM of the indicated compounds for 1 h, then were washed 3 times with PBS and resuspended in culture media. Samples were taken at the indicated time points and lysed immediately.

KRAS and CypA = KRAS and CypA (Homo sapiens, UniProt P01116+P62937, G12C); test: Melting curve of the KRAS.CypA complex; format: binding
HRAS, CypA, Sos = HRAS, CypA, Sos (Homo sapiens, UniProt P01112+P62937, M72C); test: HRAS.CypA ternary complex and Sos-mediated nucleotide exchange; format: biochemical
Experimental: FIG. 44. […] Assay conditions: 1 μM Ras.GDP, 1 μM Mant-GDP, 20 mM EPES 7.5, 150 mM NaCl, 10 mM EDTA or 1 μM Sos. 95A is synonymous to 06-031.

Ras.Raf binding = Ras.Raf binding pulldown; conditions: HRAS.CypA ternary complex
Experimental: FIG. 45. […] Pulldown conditions: 100 nM KRAS, 50 μg/mL BSA, 20 mM HEPES 7.5, 150 mM NaCl, 5 mM MgCl2, 1 mM […], 1% NP-40. GppNHp loaded proteins were prepared by EDTA-mediated nucleotide exchange.

LRRK2 = test: Inhibition of LRRK2 autophosphorylation; format: cell-based
Experimental: (§2) FIGS. 4A-4C. A general approach to construct FKBP-dependent, programmable kinase inhibitors. (FIG. 4A) Structures of lapatinib and FK-lapatinib, their effects on HER2 signaling and the growth inhibition of SK-BR-3 cells by these compounds. (FIGS. 4B-4C) Structures of GNE7915 and FK-GNE7915 and their inhibition of LRRK2 autophosphorylation.
FIG. 30. […] 3T3 or RAW264.7 cells (MJFF cell line), 2 h treatment.
(§3) We extended our design strategy and prepared two other bispecific ligands based on the structures of an FDA-approved HER2/EGFR inhibitor (lapatinib) and an LRRK2 inhibitor in clinical development (GNE7915). […] With the three case studies presented above, we cautiously anticipate that the same workflow could be applied to convert other kinase inhibitors into FKBP-dependent formats with similar if not better cellular activities.

FKBP12 [4] = target: T2, FKBP12; test: Fluorescence polarization assay of binding to FKBP12
SK-BR-3 cells = test: Growth inhibition of SK-BR-3 cells; format: cell-based
Excerpt: as §2, §3

HER2 = HER2 signaling in SK-BR-3 cells; format: cell-based; conditions: 1 μM
Excerpt: as §2, §3

[5] = test system: 139 kinases captured by the probe XO44; test: In-cell kinase occupancy profiling with chemoproteomic probe XO44 in Jurkat cells; format: cell-based; conditions: 100 nM, among 139 kinases captured by XO44, Jurkat cells

Structure (SMILES): CO[C@H]1C[C@@H](C)C/C(C)=C/[C@@H](CCCC(=O)N2CCN(c3cc(Nc4ncc(C(=O)Nc5c(C)cccc5Cl)s4)nc(C)n3)CC2)C(=O)C[C@H](O)[C@@H](C)[C@@H](/C(C)=C/[C@@H]2CC[C@@H](O)[C@H](OC)C2)OC(=O)[C@@H]2CCCCN2C(=O)C(=O)[C@]2(O)O[C@H]1[C@@H](OC)C[C@H]2C [Compound 05-022]
co-immunoprecipitation of Src with HA-FKBP12 (Src and HA-FKBP12): form a stable ternary complex | inhibition of phosphotyrosine signal [1]: potently inhibits | dependence of activity on FKBP12 (FKBP12 [2]): dependent on FKBP12 | growth inhibition (K562): FKBP-dependent growth inhibition | durability of effect after washout ([3]; washed 3 times with PBS): durable after washout

Structure (SMILES): C=CC(=O)N1CCN(c2nc(NCCC(=O)NCCNC(=O)CCC[C@@H](C)[C@@H](O)[C@H]3C(=O)N[C@@H](CC)C(=O)N(C)CC(=O)N(C)[C@@H](CC(C)C)C(=O)N[C@@H](C(C)C)C(=O)N(C)[C@@H](CC(C)C)C(=O)N[C@@H](C)C(=O)N[C@H](C)C(=O)N(C)[C@@H](CC(C)C)C(=O)N(C)[C@@H](CC(C)C)C(=O)N(C)[C@@H](C(C)C)C(=O)N3C)nc3c(F)c(-c4c(O)cccc4F)c(Cl)cc23)CC1 [Compound 07-014]
melting curve of the complex (KRAS and CypA): 2-stage melting curve

Structure (SMILES): C=CC(=O)Nc1cc(Cl)cc(NC(=O)c2cnn(-c3ccc(OCC(=O)N4CCN(C(=O)CCC[C@@H](C)[C@@H](O)[C@H]5C(=O)N[C@@H](CC)C(=O)N(C)CC(=O)N(C)[C@@H](CC(C)C)C(=O)N[C@@H](C(C)C)C(=O)N(C)[C@@H](CC(C)C)C(=O)N[C@@H](C)C(=O)N[C@H](C)C(=O)N(C)[C@@H](CC(C)C)C(=O)N(C)[C@@H](CC(C)C)C(=O)N(C)[C@@H](C(C)C)C(=O)N5C)CC4)cc3)c2C(F)(F)F)c1 [Compound 08-058]
Sos-mediated nucleotide exchange (HRAS, CypA, Sos; 1 μM Ras.GDP, 1 μM Mant-GDP, 1 μM Sos): inhibits Sos-mediated nucleotide exchange | ternary complex formation (HRAS, CypA, Sos; HRAS, CypA): forms a ternary complex | Ras.Raf binding (Ras.Raf binding): does not seem to impair Ras.Raf binding

Structure (SMILES): CCNc1nc(Nc2cc(F)c(C(=O)N3CCN(C(=O)CCC[C@@H]4/C=C(\C)C[C@H](C)C[C@H](OC)[C@H]5O[C@@](O)(C(=O)C(=O)N6CCCC[C@H]6C(=O)O[C@H](/C(C)=C/[C@@H]6CC[C@@H](O)[C@H](OC)C6)[C@H](C)[C@@H](O)CC4=O)[C@H](C)C[C@@H]5OC)CC3)cc2OC)ncc1C(F)(F)F [Compound 08-074]
cellular activity compared to parent compound (LRRK2; 3T3 or RAW264.7 cells, 2 h treatment): more potent cellular activity than its parent compound GNE-7915

co-immunoprecipitation of Src with HA-FKBP12 (Src and HA-FKBP12): not
Structure (SMILES): C=CC[C@@H]1/C=C(\C)C[C@H](C)C[C@H](OC)[C@H]2O[C@@](O)(C(=O)C(=O)N3CCCC[C@H]3C(=O)O[C@H](/C(C)=C/[C@@H]3CC[C@@H](O)[C@H](OC)C3)[C@H](C)[C@@H](O)CC1=O)[C@H](C)C[C@@H]2OC [FK506, tacrolimus, reference compound]

Structure (SMILES): CO[C@H]1C[C@@H](C)C/C(C)=C/[C@@H](CCCC(=O)N2CCN(c3cc(Nc4ncc(C(=O)Nc5c(C)cccc5Cl)s4)nc(C)n3)CC2)C(=O)C[C@H](O)[C@@H](C)[C@@H](/C(C)=C/[C@@H]2CC[C@@H](O)[C@H](OC)C2)OC(=O)[C@@H]2CCCCN2C(=O)C(=O)[C@]2(O)O[C@H]1[C@@H](OC)C[C@H]2C [FK506-Dasatinib]
pKd (FKBP12 [4]): 7.64

Structure (SMILES): CCNc1nc(Nc2cc(F)c(C(=O)N3CCN(C(=O)CCC[C@@H]4/C=C(\C)C[C@H](C)C[C@H](OC)[C@H]5O[C@@](O)(C(=O)C(=O)N6CCCC[C@H]6C(=O)O[C@H](/C(C)=C/[C@@H]6CC[C@@H](O)[C@H](OC)C6)[C@H](C)[C@@H](O)CC4=O)[C@H](C)C[C@@H]5OC)CC3)cc2OC)ncc1C(F)(F)F [FK-GNE7915]
inhibition of LRRK2 autophosphorylation compared to parent (LRRK2): more efficacious than its parent molecule GNE7915

IC50 of growth inhibition (SK-BR-3 cells): comparable to that of lapatinib
Structure (SMILES): CO[C@H]1C[C@@H](C)C/C(C)=C/[C@@H](CCCC(=O)N2CCN(Cc3ccc(-c4ccc5ncnc(Nc6ccc(OCc7cccc(F)c7)c(Cl)c6)c5c4)o3)CC2)C(=O)C[C@H](O)[C@@H](C)[C@@H](/C(C)=C/[C@@H]2CC[C@@H](O)[C@H](OC)C2)OC(=O)[C@@H]2CCCCN2C(=O)C(=O)[C@]2(O)O[C@H]1[C@@H](OC)C[C@H]2C [FK-lapatinib]
HER2 signaling (HER2): suppressed

Structure (SMILES): Cc1nc(Nc2ncc(C(=O)Nc3c(C)cccc3Cl)s2)cc(N2CCN(CCO)CC2)n1 [dasatinib, reference compound]
number of kinases inhibited >70% [5]: 9 | time after drug washout at which phosphotyrosine signal is restored ([3]; then drug removed): ≤ 1 h
